In US4740499A, “Method of enhancing the bioactivity of atrial peptides” (Monsanto Company, priority 1986, dated 1988):

Experiment: Plasma AP-III levels (radioimmunoassay) in rats, second test: varied AP-III infusion rate, constant thiorphan dose
Type: in vivo, rat
Settings: for Plasma AP-III concn.: thiorphan 3 mg/kg arterial after 30 min sample
Method: Plasma levels of atriopeptin III (AP-III) were tested in rats in which the AP-III was infused intravenously both with and without contemporaneous administration of thiorphan.
Male Sprague-Dawley rats, 240-310 g, were used for all tests. The rats were housed in the test facilities for at least 6 days before they were used.
Cannulas were made of PE-10 (polyethylene) tubing inserted and glued into a piece of PE-50 tubing. Rats were anesthetized with pentobarbital (50 mg/kg i.p.) and had cannulas inserted into the left femoral vein and artery. Both were inserted four cm into the vessels and tied securely. They were then tunnelled under the skin and brought out between the rat's shoulder blades and then cut so that only 1-2 cm was externalized. Cannulas were glued in place using Superglue and filled with saline containing 100 units heparin/ml. Rats were allowed to wake up and then housed individually with food and water ad libitum.
Two days after surgery, the rats were weighed and put into restraining cages that allowed limited movement. […] Blood was collected from the femoral artery and replaced with saline containing 10 units heparin/ml. In most tests, 0.3 ml blood was taken, except that when basal AP-III levels were measured 0.4 ml blood was withdrawn. Blood was immediately centrifuged in a microcentrifuge for one minute and plasma was frozen in plastic tubes placed on dry ice. Samples were kept in a -80° C. freezer until they were analyzed.
Thiorphan was dissolved in a minimal amount of 0.1 N NaOH to produce the sodium salt. The solution was immediately neutralized using 0.5 N HCl and diluted to a final concentration with 0.9% saline.
In the second test, the level of thiorphan was kept constant at 3 mg/kg and the rate of AP-III infusion was varied. AP-III was infused into the femoral vein for a total of 60 minutes at a rate of 150,450 and 900 ng/kg/min; another group of rats received only an infusion of dextrose/saline to determine if thiorphan affected the basal levels of AP-III. Blood was taken at 15 and 30 minutes after the start of the AP-III infusion to check for a steady state AP-III plasma concentration. After the 30 min sample, thiorphan (3 mg/kg) was injected arterially and additional blood samples were taken 15 and 30 min later (45 and 60 minutes after the start of the AP-III infusion).
Plasma AP-III levels were analyzed by radioimmunoassay using a second antibody to separate free and bound AP-III. The label was ^125 I-AP-III that was purified by HPLC after iodination. Conditions were set so that 35-40% of the total counts were precipitated. The incubation medium contained sodium phosphate, pH 7.4, 0.25% bovine serum albumin (BSA), 0.5% sodium azide and 3% PEG-8000 (polyethylene glycol). The primary antibody was from a guinea pig immunized against AP-III. The incubations were done overnight at 6° C. The next day, 2 ml of 0.125% BSA was added to each tube and then they were centrifuged for 45 min at 3000 rpm. They were decanted and the radioactivity was counted in a Micromedic gamma counter. The standard curve contained 10 to 600 pg AP-III/tube. Only the linear portion of the curve was used for quantification. Plasma samples were diluted so that the AP-III concentrations were in the range of the standard curve.

SMILES: O=C(O)CNC(=O)C(CS)Cc1ccccc1 (racemic) [thiorphan, N-(DL-2-benzyl-3-mercapto-propionyl)glycine]
- Plasma AP-III concn. (rat, AP-III 150 ng/kg/min i.v. infusion, 45 min): 2.6 ± 0.8 ng/mL
- Plasma AP-III concn. (rat, AP-III 150 ng/kg/min i.v. infusion, 60 min): 3.3 ± 1.7 ng/mL
- Plasma AP-III concn. (rat, AP-III 450 ng/kg/min i.v. infusion, 45 min): 11.2 ± 3.6 ng/mL
- Plasma AP-III concn. (rat, AP-III 450 ng/kg/min i.v. infusion, 60 min): 12.8 ± 5.8 ng/mL
- Plasma AP-III concn. (rat, AP-III 900 ng/kg/min i.v. infusion, 45 min): 29.8 ± 7.6 ng/mL
- Plasma AP-III concn. (rat, AP-III 900 ng/kg/min i.v. infusion, 60 min): 23.0 ± 6.0 ng/mL
- Plasma AP-III concn. (rat, no AP-III infusion (dextrose/saline only, basal AP-III), 45 min): 0.6 ± 0.3 ng/mL
- Plasma AP-III concn. (rat, no AP-III infusion (dextrose/saline only, basal AP-III), 60 min): 0.5 ± 0.2 ng/mL
- Increase of plasma AP-III levels after thiorphan administration (rat, thiorphan 3 mg/kg given 30 min after start of various AP-III infusion rates): 2-3 fold
- Basal levels of AP-III after inhibitor (rats receiving no exogenous peptide, thiorphan 3 mg/kg): did not increase
